Reference: paper PMC5078989, “Targeted inhibition of the COP9 signalosome for treatment of cancer” (Nature Communications, 2016)

Tested on: panel of cancer cell lines
Assay: Cell viability (CellTiter-Glo) dose-response across cancer cell line panel;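 further: after 72 h compound incubation with CellTiter-Glo ATP readout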
Assay type: cell-based, human
Details: Homo sapiens
Source text: Next, we explored the effect of CSN5 inhibition on the viability of cancer cells. To obtain a comprehensive picture, we generated dose–response curves with a CSN5 inhibitor across more than 500 cancer cell lines in a previously described standardized setting[47] (Supplementary Data 1).
A standardized CellTiter-Glo Assay (Promega #G7570) based on the quantification of ATP was applied according to the manufacturer's protocol to measure the amount of viable cells in culture. In brief, cells were seeded into 384-well plates at optimal density for each cell line. After 4 h, compounds were added at different concentrations in growth medium and incubated for another 72 h in a humidifying chamber at 37 °C and 5% CO2. […] EC50 values were calculated from the plot of percentage of inhibition versus inhibitor concentration using the nonlinear regression analysis software Origin 7.5SR6 (OriginLab Corp.).

EC50 (MSTO-211H, MSTO-211H cells): 10.8 µM | EC50 (MV4-11, MV-4-11 cells): 6.71 µM | EC50 (Malme-3M, Malme-3M cells): 13.6 µM | EC50 (Mono-Mac-1, MONO-MAC-1 cells): 3.69 µM | EC50 (NALM-6, NALM-6 cells): 6.94 µM | EC50 (NB1, NB-1 cells): 11.7 µM | EC50 (NB-4, NB-4 cells): 8.86 µM | EC50 (NCI-H23, NCI-H23 cells): 23.9 µM | EC50 (NCI-H28, NCI-H28 cells): 15 µM | EC50 (NCI-H146, NCI-H146 cells): 11.6 µM | EC50 (NCI-H211, NCI-H211 cells): 20.6 µM | EC50 (NCI-H322, NCI-H322 cells): 12.9 µM | EC50 (NCI-H441, NCI-H441 cells): 24.7 µM | EC50 (NCI-H460, NCI-H460 cells): 10.1 µM | EC50 (NCI-H661, NCI-H661 cells): 20.1 µM | EC50 (NCI-H747, NCI-H747 cells): 10.7 µM | EC50 (NCI-H810, NCI-H810 cells): > 30 µM | EC50 (NCI-H838, NCI-H838 cells): > 30 µM | EC50 (NCI-H841, NCI-H841 cells): 11 µM | EC50 (NCI-H1048, NCI-H1048 cells): 15.8 µM | EC50 (NCI-H1155, NCI-H1155 cells): 8.05 µM | EC50 (NCI-H1299, NCI-H1299 cells): 8.56 µM | EC50 (NCI-H1339, NCI-H1339 cells): 11.2 µM | EC50 (NCI-H1341 cells): 10.2 µM | EC50 (NCI-H1355, NCI-H1355 cells): 12 µM | EC50 (NCI-H1373, NCI-H1373 cells): 13 µM | EC50 (NCI-H1437, NCI-H1437 cells): 11.7 µM | EC50 (NCI-H1568, NCI-H1568 cells): 11.2 µM | EC50 (NCI-H1581, NCI-H1581 cells): 7.75 µM | EC50 (NCI-H1650, NCI-H1650 cells): 12.6 µM | EC50 (NCI-H1666, NCI-H1666 cells): 12.9 µM | EC50 (NCI-H1693, NCI-H1693 cells): 14.7 µM | EC50 (NCI-H1703, NCI-H1703 cells): 6.5 µM | EC50 (NCI-H1755, NCI-H1755 cells): 12.8 µM | EC50 (NCI-H1975, NCI-H1975 cells): 11.3 µM | EC50 (NCI-H2023, NCI-H2023 cells): 12.4 µM | EC50 (NCI-H2030, NCI-H2030 cells): 29.9 µM | EC50 (NCI-H2073, NCI-H2073 cells): 20.3 µM | EC50 (NCI-H2087, NCI-H2087 cells): 13 µM | EC50 (NCI-H2110, NCI-H2110 cells): 11.8 µM | EC50 (NCI-H2122, NCI-H2122 cells): 10.1 µM | EC50 (NCI-H2170, NCI-H2170 cells): 10.4 µM | EC50 (NCI-H2171, NCI-H2171 cells): 17.6 µM | EC50 (NCI-H2228, NCI-H2228 cells): > 30 µM | EC50 (NCI-H2286, NCI-H2286 cells): 10.5 µM | EC50 (NCI-H2444, NCI-H2444 cells): 11.6 µM | EC50 (NCI-H2452, NCI-H2452 cells): > 30 µM | EC50 (NCI-H3255, NCI-H3255 cells): 13.2 µM | EC50 (NO36 cells): 13.1 µM | EC50 (NOMO-1, NOMO-1 cells): 7.28 µM | EC50 (NUGC-3, NUGC-3 cells): 9.54 µM | EC50 (OCI-AML-3, OCI-AML3 cells): 7.14 µM | EC50 (OCI-AML-5, OCI-AML5 cells): 9.5 µM | EC50 (OCI-Ly3, OCI-LY3 cells): 5.42 µM | EC50 (OCI-M1, OCI-M1 cells): 7.25 µM | EC50 (ONCO-DG-1, ONCO-DG-1 cells): 7.45 µM | EC50 (OUMS-23, OUMS-23 cells): 12.2 µM | EC50 (OV56, OV56 cells): 12.7 µM | EC50 (OVCAR-4, OVCAR-4 cells): 9.93 µM | EC50 (OVISE cells): 12.1 µM | EC50 (P3HR-1, P3HR-1 cells): 7.82 µM | EC50 (P12-Ichikawa, P12-ICHIKAWA cells): 7.02 µM | EC50 (P31-FUJ, P31/FUJ cells): 13.4 µM | EC50 (PANC-1, PANC-1 cells): 12.2 µM | EC50 (PANC-03-27, Panc 03.27 cells): 21.9 µM | EC50 (PC-3, PC-3 cells): 10.7 µM | EC50 (PC-14, PC-14 cells): 12.6 µM | EC50 (PE/CA-PJ49 cells): 12.7 µM | EC50 (PF-382, PF-382 cells): 4.99 µM | EC50 (PK-1, PK-1 cells): 15.9 µM | EC50 (PK-45H cells): 9.52 µM | EC50 (PK-59, PK-59 cells): 11.5 µM | EC50 (PL-21, PL-21 cells): 6.39 µM | EC50 (PLC-PRF-5, PLC/PRF/5 cells): 19.8 µM | EC50 (PSN1, PSN1 cells): 11 µM | EC50 (PaTu 8988s, PA-TU-8988S cells): 26.6 µM | EC50 (PaTu 8988t, PA-TU-8988T cells): 10.6 µM | EC50 (Panc 02.03, Panc 02.03 cells): > 30 µM | EC50 (Panc 04.03, Panc 04.03 cells): 13.1 µM | EC50 (QGP-1, QGP-1 cells): 11.8 µM | EC50 (RCM-1, RCM-1 cells): 13.6 µM | EC50 (RD, RD cells): 9.86 µM | EC50 (RERF-LC-AI cells): 11.7 µM | EC50 (RERF-LC-MS cells): 24.1 µM | EC50 (RKN cells): 28.9 µM | EC50 (RKO, RKO cells): 17.9 µM | EC50 (RPMI 8402, RPMI-8402 cells): 7.36 µM | EC50 (RPMI-7951, RPMI-7951 cells): 11.4 µM | EC50 (RT-112, RT-112 cells): 11.2 µM | EC50 (Rh41, RH-41 cells): 4.52 µM | EC50 (SCC-25, SCC-25 cells): 11.6 µM | EC50 (SCaBER, SCaBER cells): > 30 µM | EC50 (SEM cells): 9.47 µM | EC50 (SF-268, SF-268 cells): 12.7 µM | EC50 (SH-4, SH-4 cells): 11.1 µM | EC50 (SH-10-TC, SH-10-TC cells): 10.6 µM | EC50 (SH-SY5Y, SH-SY5Y cells): 8.13 µM | EC50 (SJRH30, SJRH30 cells): 15.5 µM | EC50 (SK-CO-1, SK-CO-1 cells): 10.7 µM | EC50 (SK-ES1, SK-ES-1 cells): 13.2 µM | EC50 (SK-HEP1, SK-HEP-1 cells): > 30 µM | EC50 (SK-LU-1, SK-LU-1 cells): 8.59 µM | EC50 (SK-MEL3, SK-MEL-3 cells): 10.3 µM | EC50 (SK-MEL-2, SK-MEL-2 cells): 14.9 µM | EC50 (SK-MEL-5, SK-MEL-5 cells): 10.6 µM | EC50 (SK-MEL-28, SK-MEL-28 cells): 13.2 µM | EC50 (SK-MEL-30, SK-MEL-30 cells): 12.1 µM | EC50 (SK-MEL-31 cells): 23.9 µM | EC50 (SK-MES-1, SK-MES-1 cells): 28 µM | EC50 (SK-N-SH, SK-N-SH cells): 26.6 µM | EC50 (SKM-1, SKM-1 cells): 13.6 µM | EC50 (SKNBE2, SK-N-BE(2) cells): 11.4 µM | EC50 (SNB-19, SNB-19 cells): 25 µM | EC50 (SNG-M cells): 20.9 µM | EC50 (SNU668, SNU-668 cells): 11.5 µM | EC50 (SNU878, SNU-878 cells): 7.43 µM | EC50 (SNU-8 cells): > 30 µM | EC50 (SNU-16, SNU-16 cells): 8.93 µM | EC50 (SNU-61 cells): > 30 µM | EC50 (SNU-175 cells): 17.1 µM | EC50 (SNU-213 cells): 13.4 µM | EC50 (SNU-324 cells): 12.8 µM | EC50 (SNU-349 cells): > 30 µM | EC50 (SNU-387, SNU-387 cells): 9.94 µM | EC50 (SNU-398, SNU-398 cells): 6.84 µM | EC50 (SNU-410 cells): 22.2 µM | EC50 (SNU-423, SNU-423 cells): 12.7 µM | EC50 (SNU-449, SNU-449 cells): 25.6 µM | EC50 (SNU-475, SNU-475 cells): > 30 µM
Structure (SMILES): COCc1ccccc1NCc1ccc([C@@H]2[C@H](O)CCCc3cncn32)c(-c2ccccc2Cl)c1 [CSN5i-2e, (5R,6R)-5-(2′-chloro-5-(((2-(methoxymethyl)phenyl)amino)methyl)-[1,1′-biphenyl]-2-yl)-6,7,8,9-tetrahydro-5H-imidazo[1,5-a]azepin-6-ol]
